Experimental data published in patent publication EP3653215A1, “THERANOSTIC INHIBITORS AND ACTIVITY-BASED PROBES FOR THE KLK7 PROTEASE” (University of Patras, priority 2018, dated 2020).
“Also recorded” adds a separate entry of the source. Read-outs that look alike come from different tables or passages of the source.

How the values were obtained:
[1] = molecular target: T1, KLK6 (Homo sapiens, UniProt Q92876); test: Western-like blotting with activity-based probe; type: binding; details: enzyme reacted with probe 2 or 16 hours
Experimental: (§1) For Western-like blotting, the enzymes were reacted with Biotin-FFP for 2 or 16 hours, resolved on SDS-PAGE, then, the proteins were transferred on PVDF membranes. Membranes were blocked with 3% BSA in PBS for 40 min at room temperature, washed twice with PBS and incubated for 1 hour at room temperature with streptavidin-HRP polymer (1:2,000) and subsequently washed four times with PBS containing 0.05% Tween-20. Specific bands were identified with ECL.

[2] = test system: trypsin; test: Western-like blotting with activity-based probe; type: binding; details: enzyme reacted with probe 2 or 16 hours
Experimental: as §1

[3] = test system: skin of wildtype (wt) or Klk5^-/- mice; test: erythema/eschar and oedema scoring after application on the skin; type: in vivo; design: key to Erythema and Eschar Score after (hrs) 4 / Erythema and Eschar Score after (hrs) 24 / Erythema and Eschar Score after (hrs) 48 / Erythema and Eschar Score after (hrs) 72: 0: No erythema; 1: Very slight erythema (barely perceptible); 2: Well defined erythema; 3: Moderate to severe erythema; 4: Severe erythema (beef redness); key to Oedema Score after (hrs) 4 / Oedema Score after (hrs) 24 / Oedema Score after (hrs) 48 / Oedema Score after (hrs) 72: 0: No oedema; 1: Very slight oedema (barely perceptible); 2: Slight oedema (edges of area well defined by definite raising); 3: Moderate oedema (raised approximately 1mm); 4: Severe erythema (raised more than 1mm and extending beyond area of exposure); details: for erythema or oedema in vivo: 1 mM on the skin of wildtype (wt) or Klk5^-/- mice; for erythema or oedema in vivo / toxicity: result in words; for Erythema and Eschar Score after (hrs) 4 / Oedema Score after (hrs) 4 / Erythema and Eschar Score after (hrs) 24 / Oedema Score after (hrs) 24 / Erythema and Eschar Score after (hrs) 48 / Oedema Score after (hrs) 48 / Erythema and Eschar Score after (hrs) 72 / Oedema Score after (hrs) 72: 1 mM on the skin; for Erythema and Eschar Score after (hrs) 4 / Oedema Score after (hrs) 4: 4 hrs; for Erythema and Eschar Score after (hrs) 24 / Oedema Score after (hrs) 24: 24 hrs; for Erythema and Eschar Score after (hrs) 48 / Oedema Score after (hrs) 48: 48 hrs; for Erythema and Eschar Score after (hrs) 72 / Oedema Score after (hrs) 72: 72 hrs; for toxicity: wild type and Klk5^-/- mice
From the text: Scoring was based on the following criteria (Table 2 and 3): Table 2 - Scoring criteria for erythema and eschar formation

[4] = molecular target: T2, KLK7 (Homo sapiens, UniProt P49862); type: binding
T2 sequence (P49862 30-253): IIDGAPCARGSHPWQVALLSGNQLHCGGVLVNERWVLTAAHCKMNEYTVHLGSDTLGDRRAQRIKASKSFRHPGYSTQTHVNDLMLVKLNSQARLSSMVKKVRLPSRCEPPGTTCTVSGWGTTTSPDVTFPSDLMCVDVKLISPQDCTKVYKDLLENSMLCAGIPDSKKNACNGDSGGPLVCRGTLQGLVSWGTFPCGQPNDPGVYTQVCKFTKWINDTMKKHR

[5] = molecular target: T1, KLK6; test: enzyme kinetic study, cleavage of fluorescent substrate Z-Phe-Arg-AMC; type: biochemical
Experimental: (§2) The enzyme kinetic study testing the ability of Boc-FFP to inhibit trypsin or KLK6 was performed with cleavage of fluorescent substrate Z-Phe-Arg-AMC. The enzymes were used at 12 nM and the substrate at 50 µM. Boc-FFP was used at 1.2 µM (100:1 molar ration inhibitor: enzyme). Aprotinin was used a positive control at 500 nM final concentration. Fluorescence was measured (λexc=380 nm, λem=440 nm) for 3 min and the results were expressed as ΔF/Δt.

[6] = test system: trypsin; test: as above; type: biochemical
Experimental: as §2

[7] = molecular target: T2, KLK7; test: KLK7 inhibition study for IC50 determination, BODIPY-FL casein substrate; type: biochemical; details: KLK7 6 nM, inhibitor 50 nM to 10 µM, 16 hours at room temperature, BODIPY-FL casein 30 µg/ml
Experimental: For IC50 determination, KLK7 inhibition study was carried out in assay buffer (100 mM Tris-HCI, pH 7.8, 100 mM NaCl, 10 mM CaCl2, 0.005% Triton X-100). KLK7 (6 nM) was incubated with the inhibitor (50 nM to 10 µM) for 16 hours at room temperature in the assay buffer. Then, the BODIPY-FL casein substrate (Molecular Probes) was added at 30 µg/ml and fluorescence was measured (λexc=485 nm, λem=530 nm). After 3 hours the fluorescence was measured again. Data were inserted into the online available program Very Simple IC50 Tool (http://www.ic50.tk/) for fitting and calculation of the IC50.

[8] = test system: Spink5^-/^-Klk5^-/- mice; test: application on the skin of Spink5^-/^-Klk5^-/- mice (desquamation, inflammatory cytokines); type: in vivo
[9] = molecular target: T2, KLK7; test: gel zymography (casein); type: biochemical
[10] = molecular target: T1, KLK6; test: gel zymography, specificity; type: biochemical; details: 2 hours at room temperature
Experimental: (§3) For gel zymography, the compounds were reacted with the enzymes at room temperature for 2 hours, then mixed with zymogram loading buffer without mercaptoethanol, incubated at 37°C for 15 min and resolved on 12% SDS-PAGE containing 0.1% casein or gelatin substrates. Gels were washed twice with 50 mM Tris-HCI pH 7.5, 5 mM CaCl2, 2.5% Triton X-100 for 15 min, then 15 min with 50 mM Tris-HCI, pH 7.5, 5 mM CaCl2, 0.1% Triton X-100, and finally incubated in the latter buffer for 24 hours and stained with Coomassie G-250. Proteolytic bands appear white against a blue background.

[11] = molecular target: T3, KLK13 (Homo sapiens, UniProt Q9UKR3); test: gel zymography, specificity; type: biochemical; details: 2 hours at room temperature
T3 sequence (Q9UKR3 17-277): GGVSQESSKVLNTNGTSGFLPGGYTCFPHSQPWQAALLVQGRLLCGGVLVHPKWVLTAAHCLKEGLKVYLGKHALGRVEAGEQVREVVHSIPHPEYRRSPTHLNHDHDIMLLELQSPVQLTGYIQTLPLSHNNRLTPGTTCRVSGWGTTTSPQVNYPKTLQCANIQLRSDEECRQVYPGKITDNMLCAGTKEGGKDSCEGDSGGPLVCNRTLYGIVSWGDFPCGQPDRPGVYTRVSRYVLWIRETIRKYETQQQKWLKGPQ
Experimental: as §3

[12] = test system: trypsin; test: gel zymography, specificity; type: biochemical; details: 2 hours at room temperature
Experimental: as §3

[13] = test system: elastase (ELA); test: gel zymography, specificity; type: biochemical; details: 2 hours at room temperature
Experimental: as §3

[14] = enzyme kinetic study, result in words
[15] = gel zymography, casein, compound reacted with enzyme 2 hours at room temperature

SMILES	erythema or oedema in vivo [3]	Erythema and Eschar Score after (hrs) 4 ([3]; Klk5^-/- mice)	Oedema Score after (hrs) 4 ([3]; Klk5^-/- mice)	Erythema and Eschar Score after (hrs) 24 ([3]; Klk5^-/- mice)	Oedema Score after (hrs) 24 ([3]; Klk5^-/- mice)	Erythema and Eschar Score after (hrs) 48 ([3]; Klk5^-/- mice)	Oedema Score after (hrs) 48 ([3]; Klk5^-/- mice)	Erythema and Eschar Score after (hrs) 72 ([3]; Klk5^-/- mice)	Oedema Score after (hrs) 72 ([3]; Klk5^-/- mice)	toxicity [3]	Erythema and Eschar Score after (hrs) 4 ([3]; wt mice)	Oedema Score after (hrs) 4 ([3]; wt mice)	Erythema and Eschar Score after (hrs) 24 ([3]; wt mice)	Oedema Score after (hrs) 24 ([3]; wt mice)	Erythema and Eschar Score after (hrs) 48 ([3]; wt mice)	Oedema Score after (hrs) 48 ([3]; wt mice)	Erythema and Eschar Score after (hrs) 72 ([3]; wt mice)	Oedema Score after (hrs) 72 ([3]; wt mice)	inhibition of KLK7 activity [9, 15]	other results
O=C(CCCCCNC(=O)CCCC[C@H]1SCC2NC(=O)NC21)NCCCCCC(=O)NC(Cc1ccccc1)C(=O)NC(Cc1ccccc1)P(=O)(Oc1ccccc1)Oc1ccccc1 (stereo partly drawn) [Biotin-FFP, diphenyl 1-(2-(6-(6-(5-((4R)-2-oxo-hexahydro-1H-thieno[3,4-d]imidazole-4-yl)pentanamido)hexanamido)hexanamido)-3-phenylpropanamido)-2-phenylethylphosphonate]	did not exhibit either erythema or oedema	0	0	0	0	0	0	0	0	lack toxicity	0	0	0	0	0	0	0	0		detection of KLK6 [1]: does not react with KLK6 and trypsin; detection of trypsin [2]: not the trypsin or the KLK6; also recorded: does not react with KLK6 and trypsin; detection of active KLK7 [4]: only detected the active KLK7; labeling of KLK7, signal [4]: higher signal compared to Biotin-FbFP; also recorded: significant signal enhancement
CC(C)(C)OC(=O)NC(Cc1ccccc1)C(=O)NC(Cc1ccccc1)P(=O)(Oc1ccccc1)Oc1ccccc1 (stereo not drawn) [Boc-FFP, tert-butvl 1-(1-(diphenoxvphosphorvl)-2-phenylethylamino)-1-oxo-3-phenylpropan-2-ylcarbamate]	did not exhibit either erythema or oedema	0	0	0	0	0	0	0	0	lack toxicity	0	0	0	0	0	0	0	0		ΔF/Δt ([5]; KLK6 12 nM, Z-Phe-Arg-AMC 50 µM, change in fluorescence over 3 min, Boc-FFP 1.2 µM pre-incubated 2 hours, Aprotinin 500 nM, KLK6 alone 35.54): 37.96; inhibition of the activity of KLK6 [5, 14]: did not inhibit; inhibition of the activity of trypsin [6, 14]: did not inhibit; ΔF/Δt ([6]; trypsin 12 nM, Z-Phe-Arg-AMC 50 µM, change in fluorescence over 3 min, Boc-FFP 1.2 µM pre-incubated 2 hours, Aprotinin 500 nM, trypsin alone 33.49): 33.26; IC50 [7]: 1910 nM; reduction of macroscopic desquamation ([8]; application on the skin of Spink5^-/^-Klk5^-/- mice, versus solvent control side): approximately 50%; expression of inflammatory cytokines ([8]; skin of Spink5^-/^-Klk5^-/- mice, RT-qPCR, versus solvent treatment): suppressed the expression of inflammatory cytokines; inhibition of KLK7 activity [9]: only Boc-FFP could effectively inhibit KLK7 activity; also recorded: can also inhibit the KLK7 activity; also recorded: can only inhibit the activity of KLK7; also recorded: Only KLK7 was inhibited; inhibition of KLK6 [10]: Only KLK7 was inhibited; inhibition of KLK13 [11]: Only KLK7 was inhibited; inhibition of trypsin [12]: Only KLK7 was inhibited; inhibition of elastase (ELA) [13]: Only KLK7 was inhibited
CC(C)(C)OC(=O)NC(Cc1ccccc1)C(=O)NC(c1ccccc1)P(=O)(Oc1ccccc1)Oc1ccccc1 (stereo not drawn) [Boc-FbFP]																			only Boc-FFP can inhibit the activity of KLK7	
CC(C)(C)OC(=O)NC(Cc1ccccc1)C(=O)NC(CCc1ccccc1)P(=O)(Oc1ccccc1)Oc1ccccc1 (stereo not drawn) [Boc-FcFP]																			only Boc-FFP can inhibit the activity of KLK7	
